The record followed here is US20250135006A1, “AMPHIPHILIC TLR7/8 ADJUVANTS AND USES THEREOF” (Pfizer Inc., priority 2023, published 2025).

This assay addresses T1, human toll like receptor 7 (hTLR7) (Homo sapiens, UniProt Q9NYK1).
T1 construct: host or cells: HEK293 (HEK-Blue hTLR7)
T1 sequence (Q9NYK1 27-1049): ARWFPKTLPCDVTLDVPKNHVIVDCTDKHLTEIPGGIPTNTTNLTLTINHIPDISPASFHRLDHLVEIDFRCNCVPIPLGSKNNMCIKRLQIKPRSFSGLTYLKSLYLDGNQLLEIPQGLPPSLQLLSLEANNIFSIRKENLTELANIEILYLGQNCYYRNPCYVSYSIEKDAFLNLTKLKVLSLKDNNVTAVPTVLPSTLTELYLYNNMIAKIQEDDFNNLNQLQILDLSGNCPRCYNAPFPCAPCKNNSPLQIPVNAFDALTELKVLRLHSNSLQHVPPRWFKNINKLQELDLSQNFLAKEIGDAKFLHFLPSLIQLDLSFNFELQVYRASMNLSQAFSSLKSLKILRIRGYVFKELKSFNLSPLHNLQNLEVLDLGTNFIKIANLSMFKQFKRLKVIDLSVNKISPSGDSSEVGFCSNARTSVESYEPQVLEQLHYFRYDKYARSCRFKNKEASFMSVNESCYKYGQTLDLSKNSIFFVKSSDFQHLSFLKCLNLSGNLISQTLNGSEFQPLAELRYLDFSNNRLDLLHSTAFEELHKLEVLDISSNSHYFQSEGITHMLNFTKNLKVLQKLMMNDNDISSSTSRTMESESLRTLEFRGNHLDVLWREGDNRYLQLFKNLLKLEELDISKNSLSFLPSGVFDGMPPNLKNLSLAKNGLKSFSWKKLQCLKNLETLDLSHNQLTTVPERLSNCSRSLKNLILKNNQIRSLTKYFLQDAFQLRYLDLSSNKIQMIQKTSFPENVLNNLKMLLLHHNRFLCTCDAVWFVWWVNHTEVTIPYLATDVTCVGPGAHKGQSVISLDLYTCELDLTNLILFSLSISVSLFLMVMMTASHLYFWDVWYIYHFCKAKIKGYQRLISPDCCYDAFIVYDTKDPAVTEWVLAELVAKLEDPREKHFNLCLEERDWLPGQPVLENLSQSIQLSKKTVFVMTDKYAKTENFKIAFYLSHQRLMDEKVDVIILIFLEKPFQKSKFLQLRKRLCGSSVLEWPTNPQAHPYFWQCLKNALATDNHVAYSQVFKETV
The experiment in a line: hTLR7 in-vitro functional assay (HEK-Blue hTLR7 SEAP reporter). It counts as cell-based. As to conditions: HEK-Blue hTLR7 cells, overnight incubation.

On to `CCCCc1nc2c(N)nc3cc(CCCN4CCN(C(=O)CCOCCOCCOCCOCCOCCOCCOCCOCCOCCOCCOCCOCCOCCOCCOCCOCCOCCOCCOCCOCCOCCOCCOCCOCCNC(=O)CCOCCOCCOCCOCCNC(=O)CCCOc5c(C)c(C)c6c(c5C)CC[C@@](C)(CCC[C@H](C)CCC[C@H](C)CCCC(C)C)O6)CC4)ccc3c2n1CC(C)(CO)CO` [Compound 2, N-{75-[4-(3-{4-amino-2-butyl-1-[3-hydroxy-2-(hydroxymethyl)-2-methylpropyl]-1H-imidazo[4,5-c]quinolin-7-yl}propyl)piperazin-1-yl]-75-oxo-3,6,9,12,15,18,21,24,27,30,33,36,39,42,45,48,51,54,57,60,63,66,69,72-tetracosaoxapentaheptacont-1-yl}-17-oxo-20-({(2R)-2,5,7,8-tetramethyl-2-[(4R,8R)-4,8,12-trimethyltridecyl]-3,4-dihydro-2H-chromen-6-yl}oxy)-4,7,10,13-tetraoxa-16-azaicosan-1-amide], for which a half-maximal response (EC50) required 355 nM.
